Source: patent publication US20100279990A1, “ANTIPROLIFERATIVE COMPOUNDS, COMPOSITIONS AND METHODS OF USE” (RAMOT AT TEL-AVIV UNIVERSITY LTD., priority 2006, published 2010)

Key:
[1] = tested on: human colon carcinoma cells (HT29); assay: cells
human tumor cell lines = assay: In vitro antitumor activity in panel of 37 human tumor cell lines (Monolayer Assay, PI), summary; assay type: cell-based
[2] = mean over human cancer cell-lines

## CN[C@H]1CC[C@@H](c2ccc(Cl)c(Cl)c2)c2ccc(C#CCCCO)cc21 [compound (Ia), (1S-cis)-4-(3,4-dichlorophenyl)-7-(5-hydroxy-1-pentyn-1-yl)-1,2,3,4-tetrahydro-N-methyl-1-naphthalenamine hydroiodide]
[1]; HT-29, read-out: IC50, viability
  IC50: 12.7 µM
[1]; HT-29, read-out: cell viability
  viability at 30 µM: 30.9%
Human tumor cell lines; 2.3 μg/ml
  active*/total cell lines: 0/37
  active*/total cell lines, percent: 0%
Human tumor cell lines; 7.5 μg/ml
  active*/total cell lines: 26/37
Human tumor cell lines; 7.5 μg/ml (text: concentration of 7.5), hydroiodide
  active*/total cell lines, percent: 70%
Human tumor cell lines; 23. μg/ml
  active*/total cell lines: 37/37
  active*/total cell lines, percent: 100%
Human tumor cell lines; 75. μg/ml
  active*/total cell lines: 37/37
  active*/total cell lines, percent: 100%
Human tumor cell lines; .75 μg/ml
  active*/total cell lines: 0/37
  active*/total cell lines, percent: 0%
Human tumor cell lines; [2]
  IC50: 4.9 µM
  mean IC70: 6.9 µM
